Test results reported in EP2955191A1, “Compound, composition and method for treating and/or ameoliorating kidney disease” (Trineo Biotechnology Co. Ltd, priority 2014, dated 2015).

Key:
[1] = system: Blb/c mice; experiment: Lipopolysaccharide (LPS) induced in vivo kidney inflammation (urine protein); conditions: oral 100 mg/Kg; LPS 2.5 mg/Kg/day i.p. for 5 days; urine on fifth and tenth day; FIG 3
Method: Blb/c mice were kept in pathogen-free environment under 12:12 light-dark cycle with food (laboratory rodent diet 5001 purchased from PMI Nutrition International Inc. MO, USA) and water (i.e., distilled water) provided ad libitum, ambient temperature and relative humidity were respectively set at 22±3 °C and 50±20%. All procedures involving animal studies of the present disclosure comply with the "Guideline for the Care and Use of Laboratory Animals" issued by The Chinese-Taipei Society of Laboratory Animal Sciences.
In this example, to evaluate the therapeutic or prophylactic function of the compositon of example 1.2, animals were first injected intraperitoneally with lipopolysaccharide (LPS) to induce in vivo kidney inflammation before being subect to the treatment of the compositon of example 1.2.
Blb/c mice (6 weeks old) were randomly assigned to two groups, and injected intraperitoneally with lipopolysaccharide (LPS, 2.5 mg/Kg/day) for 5 consecutive days so as to induce kidney inflammation. […] Unine sampls were respectively collected on the fifth and the tenth day after the experiment started, and analyzed for the level of urine protein therein. […]

[2] = system: MDCK cells; experiment: Cisplatin induced in vitro kidney cell apoptosis (mitochondria membrane potential, DiOC6 staining); format: cell-based, canine; conditions: given after 50 µM cisplatin for 4 hrs, FIG 1A
Method: Madin-Darby canine kidney (MDCK) cells (1.5 x 10^5 cells/mL) were cultured and maintained in Dulbecco's modified Eagle medium (DMEM) supplemented with 10% fetal bovine serum (FBS), 100 units/mL penicillin, […] streptomycin, 2mM L-glutamine, non-essential amino acids and sodium pyruvate, and maintained in 5% CO2 at 37 °C until reached 80% confluence, then were subject to cell passages.
MDCK cells were cultured in according to procedures described in the "Materials and Methods" section. To start the experiment, MDCK cells were first incubated with 50 µM cisplatin for 4 hrs, then various concentrations of the compound of formula (I) (50µg/mL or 100 µg/mL) or the YKII-10 composition of example 1.2 (25 to 100 µg/mL) were given to cisplatin-treated cells and further incubated for another 24 hrs. Mitochondria membrane potentials were then measured by staining the live cells with fluorescent dyes (e.g., 50 nM DiOC6), in which 50 nM DiOC6 were added to cells and incubated at 37 °C for 30 min. The cells were then washed twice with phosphate buffer solution before subjecting to microscopy analysis using the inverted fluorescent microscope. […] Results are illustrated in FIGs 1A and 1B.

SMILES: C[C@H](CCC(=O)O)[C@H]1C[C@H](O)[C@@]2(C)C3=C(C(=O)C[C@]12C)[C@@]1(C)CCC(=O)C(C)(C)[C@@H]1C[C@@H]3O [compound of formula (I)]
- urine protein level [1]: effective in reducing
- reversing cisplatin-induced apoptosis of MDCK cell ([2]; 50µg/mL or 100 µg/mL for 24 hrs): capable of reversing
- recovery on the membrane potential ([2]; 100 µg/mL for 24 hrs, MDCK cells): about 80%
